# Read-outs that look alike come from different tables or passages of the source.
# Biological target: ROCK2 (Homo sapiens (Human), UniProt O75116)
# Assay: Rho-kinase inhibition ELISA (ROCK active-II, MYPT1 substrate)
# Type: biochemical
# Details: classes given as pIC50, ATP 250 μM
# Protocol: To measure Rho-kinase inhibition, IC50 values were determined according to the following ELISA protocol:
# ROCK Substrate Coated Plate (Part No 241601): One strip well 96-well plate pre-coated with recombinant MYPT1.
# Buffer: 25 mM Tris, pH 7.5, 10 mM MgCl2, 5 mM Glycerol-2-Phosphate, 0.1 mM Na3VO4; 1% DMSO; 2.5 mM DTT; (Enzyme: ROCK active-II) (Cell Biolabs, Catalog #STA-406, Part No. 241505) 0.1 ng/μl.
# ATP Solution (Part No. 241604): 100 mM ATP. Final concentration of ATP in reaction mixture: 250 μM.
# Secondary Antibody, HRP Conjugate (Part No. 231003).
# Biotinylated substrate, diluted to 0.25 μM with buffer described above (without ATP).
# 1. Purified kinase or cell lysate sample can be used directly in the kinase assay or further diluted with 1× Kinase Buffer. Each sample should be assayed in duplicate.
# 2. Add 90 μL of the diluted active ROCK-II positive control or unknown ROCK samples to the wells of the substrate plate.
# 3. Initiate the kinase reaction by adding 10 μL of the 10× Kinase Reaction Buffer containing DTT and ATP. Mix well.
# 4. Cover with a plate cover and incubate the wells at 30° C. for 30-60 minutes with gentle agitation.
# 5. Stop kinase reaction by flicking out the content or by adding 50 μL of 0.5M EDTA, pH 8.0, to each well.
# 6. Remove the plate cover and empty wells. Wash microwell strips 3 times with 250 μL 1× Wash Buffer per well with thorough aspiration between each wash. After the last wash, empty wells and tap microwell strips on absorbent pad or paper towel to remove excess 1× Wash Buffer.
# 7. Add 100 μL of the diluted anti-phospho-MYPT1 (Thr696) antibody to each well.
# 8. Cover with the plate cover and incubate at room temperature for 1 hour on an orbital shaker.
# 9. Remove the plate cover and empty wells. Wash the strip wells 3 times according to step 6 above.
# 10. Add 100 μL of the diluted HRP-conjugated secondary antibody to each well.
# 11. Cover with the plate cover and incubate at room temperature for 1 hour on an orbital shaker.
# 12. Remove the plate cover and empty wells. Wash microwell strips 3 times according to step 6 above. Proceed immediately to the next step.
# 13. Warm Substrate Solution to room temperature. Add 100 μL of Substrate Solution to each well, including the blank wells. Incubate at room temperature for 5-20 minutes on an orbital shaker.
# 14. Stop the enzyme reaction by adding 100 μL of Stop Solution into each well, including the blank wells. Results should be read immediately (color will fade over time).
# 15. Read absorbance of each microwell on a spectrophotometer using 450 nm as the primary wave length.
# The given activity (shown in Table 1 and Table 2) is denoted as the negative logarithm of the IC50 (pIC50) as follows: […]
# ROCK2, sequence (O75116 whole entry, species assumed): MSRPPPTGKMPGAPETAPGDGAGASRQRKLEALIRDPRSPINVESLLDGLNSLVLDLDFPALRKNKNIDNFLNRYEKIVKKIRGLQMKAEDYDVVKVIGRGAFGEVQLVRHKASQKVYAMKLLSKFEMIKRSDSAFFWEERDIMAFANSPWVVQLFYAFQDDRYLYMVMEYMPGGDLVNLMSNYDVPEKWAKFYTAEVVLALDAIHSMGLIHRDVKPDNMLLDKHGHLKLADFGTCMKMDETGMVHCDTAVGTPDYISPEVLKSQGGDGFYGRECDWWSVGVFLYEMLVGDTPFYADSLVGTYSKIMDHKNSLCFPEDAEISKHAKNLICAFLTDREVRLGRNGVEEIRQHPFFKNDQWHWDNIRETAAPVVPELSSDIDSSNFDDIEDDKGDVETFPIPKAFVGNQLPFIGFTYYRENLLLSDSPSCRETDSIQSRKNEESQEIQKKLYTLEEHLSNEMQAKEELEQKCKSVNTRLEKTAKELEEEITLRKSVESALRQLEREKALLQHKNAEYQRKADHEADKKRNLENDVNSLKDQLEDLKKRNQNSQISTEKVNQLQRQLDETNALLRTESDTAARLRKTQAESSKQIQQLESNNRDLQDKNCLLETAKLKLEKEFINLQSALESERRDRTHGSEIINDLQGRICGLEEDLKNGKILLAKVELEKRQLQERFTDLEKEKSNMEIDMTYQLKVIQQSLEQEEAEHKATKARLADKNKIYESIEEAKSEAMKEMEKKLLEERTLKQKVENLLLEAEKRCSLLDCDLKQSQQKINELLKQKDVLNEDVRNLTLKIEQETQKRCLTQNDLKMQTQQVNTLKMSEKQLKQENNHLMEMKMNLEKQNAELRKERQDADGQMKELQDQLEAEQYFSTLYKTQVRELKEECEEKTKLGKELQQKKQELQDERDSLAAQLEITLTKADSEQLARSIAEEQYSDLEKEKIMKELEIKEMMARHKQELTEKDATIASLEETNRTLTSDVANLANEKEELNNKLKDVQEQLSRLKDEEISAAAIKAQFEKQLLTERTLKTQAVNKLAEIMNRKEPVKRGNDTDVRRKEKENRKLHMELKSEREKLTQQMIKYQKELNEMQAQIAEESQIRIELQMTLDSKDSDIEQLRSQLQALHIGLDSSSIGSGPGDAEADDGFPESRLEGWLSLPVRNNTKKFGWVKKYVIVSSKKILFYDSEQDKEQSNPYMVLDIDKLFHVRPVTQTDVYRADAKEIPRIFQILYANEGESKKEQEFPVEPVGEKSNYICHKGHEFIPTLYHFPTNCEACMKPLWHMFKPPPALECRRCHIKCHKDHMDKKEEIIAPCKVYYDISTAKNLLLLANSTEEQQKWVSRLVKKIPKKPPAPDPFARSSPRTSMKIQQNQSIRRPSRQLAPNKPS
Structure (SMILES),"IC50 (Table 2, read-out: ROCK IC50) [µM]",ROCK IC50 (Table 2),further results
CN(C)CCN(Cc1ccc(Cl)cc1)C(=O)Nc1ccc2cnccc2c1 [compound 1],–,–,"IC50 (Table 1, read-out: ROCK2 IC50): 0.01 to 0.1 µM"
CN(C)CCN(Cc1ccc(F)cc1)C(=O)Nc1ccc2cnccc2c1 [compound 2],–,–,"IC50 (Table 1, read-out: ROCK2 IC50): 0.01 to 0.1 µM"
COc1cccc(CN(CCN(C)C)C(=O)Nc2ccc3cnccc3c2)c1 [compound 3],–,–,"IC50 (Table 1, read-out: ROCK2 IC50): 0.1 to 1 µM"
COc1cccc(CN(CCO)C(=O)Nc2ccc3cnccc3c2)c1 [compound 4],–,–,"IC50 (Table 1, read-out: ROCK2 IC50): 0.1 to 1 µM"
O=C(Nc1ccc2cnccc2c1)N[C@@H](CO)c1ccccc1 [compound 6],–,–,"IC50 (Table 1, read-out: ROCK2 IC50): 0.01 to 0.1 µM"
CN(C)CCN(Cc1ccc(Cl)cc1)C(=O)Nc1cccc2cnccc12 [compound 7],0.1 to 1,–,–
CN(C)CCN(Cc1cccc(F)c1)C(=O)Nc1ccc2cnccc2c1 [compound 8],–,–,"IC50 (Table 1, read-out: ROCK2 IC50): 0.1 to 1 µM"
CN(C)CCN(Cc1ccc(CO)cc1)C(=S)Nc1cccc2cnccc12 [compound 12],–,+ (pIC50<6.0),–
NCCN(Cc1ccc(O)cc1)C(=O)Nc1ccc2cnccc2c1 [compound 13],–,+ (pIC50<6.0),–
NCCN(Cc1cccc(F)c1)C(=O)Nc1ccc2cnccc2c1 [compound 16],0.1 to 1,–,–
CSc1ccc(CN(CCN)C(=O)Nc2ccc3cnccc3c2)cc1 [compound 17],–,+ (pIC50<6.0),–
COC(=O)c1ccc(CN(CCN)C(=O)Nc2ccc3cnccc3c2)cc1 [compound 18],–,+ (pIC50<6.0),–
NCCN(Cc1ccc(F)cc1)C(=S)Nc1ccc2cnccc2c1 [compound 19],0.1 to 1,–,–
NCCN(Cc1ccc(F)cc1)C(=O)Nc1cccc2cnccc12 [compound 20],–,+ (pIC50<6.0),–
CC(c1ccc(F)cc1)N(CCN)C(=O)Nc1ccc2cnccc2c1 (centres unmarked) [compound 22],0.1 to 1,–,–
NCC(NC(=O)Nc1ccc2cnccc2c1)c1ccc(F)cc1 (centres unmarked) [compound 25],–,++++ (pIC50>8.0),–
NCC(NC(=S)Nc1ccc2cnccc2c1)c1ccc(F)cc1 (centres unmarked) [compound 26],–,++++ (pIC50>8.0),–
NCCN(Cc1ccccc1)C(=S)Nc1ccc2cnccc2c1 [compound 27],0.1 to 1,–,–
NCCN(Cc1cccc(F)c1)C(=S)Nc1ccc2cnccc2c1 [compound 28],0.1 to 1,–,–
N#C/N=C(/Nc1ccc2cnccc2c1)N(CCN)Cc1ccc(F)cc1 [compound 30],0.01 to 0.1,–,–
NCCN(Cc1ccc(Cl)cc1)C(=S)Nc1ccc2cnccc2c1 [compound 31],–,++++ (pIC50>8.0),–
Cc1ccc(CN(CCN)C(=S)Nc2ccc3cnccc3c2)cc1 [compound 32],0.1 to 1,–,–
N#C/N=C(\Nc1ccc2cnccc2c1)N(CCN)Cc1ccc(Br)cc1 [compound 34],0.01 to 0.1,–,–
N#C/N=C(/Nc1ccc2cnccc2c1)N(CCN)Cc1ccccc1 [compound 36],–,++++ (pIC50>8.0),–

# Now from value to compound, other results behind:
"IC50 (Table 2, read-out: ROCK IC50) [µM]",ROCK IC50 (Table 2),Structure (SMILES),further results
0.1 to 1,–,CN(C)CCN(Cc1ccccc1)C(=O)Nc1cccc2cnccc12 [compound 6],–
0.1 to 1,–,NCCN(Cc1ccc(F)cc1)C(=O)Nc1ccc2cnccc2c1 [compound 8],–
–,+ (pIC50<6.0),COC(=O)c1ccc(CN(CCN(C)C)C(=O)Nc2cccc3cnccc23)cc1 [compound 10],–
0.1 to 1,–,CN(C)CCN(Cc1ccc(F)cc1)C(=S)Nc1cccc2cnccc12 [compound 11],–
0.1 to 1,–,NCCN(Cc1ccccc1)C(=O)Nc1ccc2cnccc2c1 [compound 14],–
0.1 to 1,–,NCCN(Cc1ccc(Br)cc1)C(=O)Nc1ccc2cnccc2c1 [compound 15],–
0.01 to 0.1,–,CC(c1ccc(F)cc1)N(CCN)C(=O)Nc1ccc2cnccc2c1 (centres unmarked) [compound 23],–
–,++++ (pIC50>8.0),NCC(NC(=S)Nc1ccc2cnccc2c1)c1ccccc1 (centres unmarked) [compound 24],–
0.01 to 0.1,–,N#C/N=C(/Nc1ccc2cnccc2c1)N(CCN)Cc1cccc(F)c1 [compound 29],–
0.1 to 1,–,NCCN(Cc1ccc(Cl)c(F)c1)C(=S)Nc1ccc2cnccc2c1 [compound 33],–
–,++++ (pIC50>8.0),COc1cccc(C(CN)NC(=S)Nc2ccc3cnccc3c2)c1 (centres unmarked) [compound 35],–
–,++++ (pIC50>8.0),COc1ccc(CN(CCN)/C(=N\C#N)Nc2ccc3cnccc3c2)cc1 [compound 37],–
0.01 to 0.1,–,NCCN(Cc1cccc(Cl)c1)C(=S)Nc1ccc2cnccc2c1 [compound 38],–
–,++++ (pIC50>8.0),Cl.NCC(NC(=S)Nc1ccc2cnccc2c1)c1cccc2ccccc12 (centres unmarked) [compound 39],–

# From patent US10696638B2, “Compounds for inhibiting AGC kinase and pharmaceutical compositions comprising the same” (Industrial Technology Research Institute, priority 2017, dated 2020)
